Measurements reported in ChEMBL document CHEMBL1201862, “PubChem BioAssay data set” (2004).
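Grown in 96-well plates, cells were treated for 48 hours with each compound at five concentrations. Insufficient inhibition: endpoint recorded as highest concentration tested. The concentration for 50% growth inhibition is given as GI50.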 Active and inactive are the calls of the source. Cut-off read from the data, not from the text of the source: active = GI50 up to about 1.1 µM and inactive = higher.

What was measured:
Experiment in all cases: DTP human tumour cell line panel, 48 h
786-0 = system: 786-0
A498 = system: A498
A549 = system: A549
ACHN = system: ACHN
BT-549 = system: BT-549
CAKI-1 = system: CAKI-1
CCRF-CEM = system: CCRF-CEM
COLO 205 = system: COLO 205
DU-145 = system: DU-145
EKVX = system: EKVX
HCC 2998 = system: HCC 2998
HCT-116 = system: HCT-116
HCT-15 = system: HCT-15
HL-60 = system: HL-60
HOP-62 = system: HOP-62
HOP-92 = system: HOP-92
HT-29 = system: HT-29
Hs-578T = system: Hs-578T
IGROV-1 = system: IGROV-1
K562 = system: K562
KM12 = system: KM12
LOX IMVI = system: LOX IMVI
M14 = system: M14
MCF7 = system: MCF7
MDA-MB-231 = system: MDA-MB-231
MDA-MB-435 = system: MDA-MB-435
MDA-N = system: MDA-N
MOLT-4 = system: MOLT-4
Malme-3M = system: Malme-3M
NCI-H226 = system: NCI-H226
NCI-H23 = system: NCI-H23
NCI-H460 = system: NCI-H460
NCI/ADR-RES = system: NCI/ADR-RES
OVCAR-3 = system: OVCAR-3
OVCAR-4 = system: OVCAR-4
OVCAR-5 = system: OVCAR-5
OVCAR-8 = system: OVCAR-8
PC-3 = system: PC-3
RPMI-8226 = system: RPMI-8226
RXF 393 = system: RXF 393
SF-268 = system: SF-268
SF-295 = system: SF-295
SF-539 = system: SF-539
SK-MEL-28 = system: SK-MEL-28
SK-MEL-2 = system: SK-MEL-2
SK-MEL-5 = system: SK-MEL-5
SN12C = system: SN12C
SNB-19 = system: SNB-19
SNB-75 = system: SNB-75
SR = system: SR
SW-620 = system: SW-620
T47D = system: T47D
TK-10 = system: TK-10
U-251 = system: U-251
UACC-257 = system: UACC-257
UACC-62 = system: UACC-62
UO-31 = system: UO-31
SK-OV-3 = system: SK-OV-3

## COc1ccc(/N=N/C(=O)NC(CC(C)C)C(=O)NC(C)C(=O)O)cc1 (stereo not given)
786-0
  GI50: > 100 µM (inactive)
A498
  GI50: > 100 µM (inactive)
A549
  GI50: 3.32 µM (inactive)
ACHN
  GI50: 1.53 µM (inactive)
BT-549
  GI50: 52.8 µM (inactive)
CAKI-1
  GI50: > 100 µM (inactive)
CCRF-CEM
  GI50: 6.28 µM (inactive)
COLO 205
  GI50: 3.2 µM (inactive)
DU-145
  GI50: 6.25 µM (inactive)
EKVX
  GI50: 30 µM (inactive)
HCC 2998
  GI50: 4.46 µM (inactive)
HCT-116
  GI50: > 34.4 µM (inactive)
HCT-15
  GI50: 1.3 µM
HL-60
  GI50: 6.22 µM (inactive)
HOP-62
  GI50: > 59.6 µM (inactive)
HOP-92
  GI50: > 100 µM (inactive)
HT-29
  GI50: > 40 µM (inactive)
Hs-578T
  GI50: > 79.3 µM (inactive)
IGROV-1
  GI50: 18.6 µM (inactive)
K562
  GI50: 1.54 µM (inactive)
KM12
  GI50: 29 µM (inactive)
LOX IMVI
  GI50: 4.68 µM (inactive)
M14
  GI50: 1.29 µM (inactive)
MCF7
  GI50: 27.5 µM (inactive)
MDA-MB-231
  GI50: > 23.4 µM (inactive)
MDA-MB-435
  GI50: 1.98 µM (inactive)
MDA-N
  GI50: 10.8 µM (inactive)
MOLT-4
  GI50: 4.22 µM (inactive)
Malme-3M
  GI50: 29.2 µM (inactive)
NCI-H226
  GI50: > 75.2 µM (inactive)
NCI-H23
  GI50: > 86.5 µM (inactive)
NCI-H460
  GI50: 9.66 µM (inactive)
NCI/ADR-RES
  GI50: > 67.9 µM (inactive)
OVCAR-3
  GI50: 28.8 µM (inactive)
OVCAR-4
  GI50: > 69.5 µM (inactive)
OVCAR-5
  GI50: > 100 µM (inactive)
OVCAR-8
  GI50: > 43.1 µM (inactive)
PC-3
  GI50: 4.72 µM (inactive)
RPMI-8226
  GI50: 20.8 µM (inactive)
RXF 393
  GI50: > 100 µM (inactive)
SF-268
  GI50: > 24.3 µM (inactive)
SF-295
  GI50: 9.82 µM (inactive)
SF-539
  GI50: 2.04 µM (inactive)
SK-MEL-28
  GI50: 17.1 µM (inactive)
SK-MEL-2
  GI50: > 35.8 µM (inactive)
SK-MEL-5
  GI50: 5.7 µM (inactive)
SN12C
  GI50: > 20.4 µM (inactive)
SNB-19
  GI50: > 100 µM (inactive)
SNB-75
  GI50: > 100 µM (inactive)
SR
  GI50: 12.7 µM (inactive)
SW-620
  GI50: 16.9 µM (inactive)
T47D
  GI50: 3.63 µM (inactive)
TK-10
  GI50: > 29.9 µM (inactive)
U-251
  GI50: > 100 µM (inactive)
UACC-257
  GI50: 23 µM (inactive)
UACC-62
  GI50: 0.968 µM (active)
UO-31
  GI50: 2.38 µM (inactive)

## O=c1c(C(c2ccccc2)c2c(O)oc3cc(O)ccc3c2=O)c(O)oc2cc(O)ccc12
A498
  GI50: > 100 µM (inactive)
A549
  GI50: > 100 µM (inactive)
BT-549
  GI50: > 100 µM (inactive)
CAKI-1
  GI50: > 100 µM (inactive)
CCRF-CEM
  GI50: > 100 µM (inactive)
COLO 205
  GI50: > 100 µM (inactive)
DU-145
  GI50: > 100 µM (inactive)
EKVX
  GI50: > 100 µM (inactive)
HCC 2998
  GI50: > 100 µM (inactive)
HCT-116
  GI50: > 100 µM (inactive)
HCT-15
  GI50: > 100 µM
HL-60
  GI50: > 100 µM (inactive)
HOP-62
  GI50: > 100 µM (inactive)
HOP-92
  GI50: > 100 µM (inactive)
HT-29
  GI50: > 100 µM (inactive)
Hs-578T
  GI50: > 100 µM (inactive)
IGROV-1
  GI50: > 100 µM (inactive)
K562
  GI50: > 100 µM (inactive)
LOX IMVI
  GI50: > 100 µM (inactive)
M14
  GI50: > 100 µM (inactive)
MCF7
  GI50: > 100 µM (inactive)
MDA-MB-231
  GI50: > 100 µM (inactive)
MDA-MB-435
  GI50: > 100 µM (inactive)
MDA-N
  GI50: > 100 µM (inactive)
MOLT-4
  GI50: > 100 µM (inactive)
Malme-3M
  GI50: > 100 µM (inactive)
NCI-H226
  GI50: > 100 µM (inactive)
NCI-H23
  GI50: > 100 µM (inactive)
NCI-H460
  GI50: > 100 µM (inactive)
NCI/ADR-RES
  GI50: > 100 µM (inactive)
OVCAR-3
  GI50: > 100 µM (inactive)
OVCAR-4
  GI50: > 100 µM (inactive)
OVCAR-5
  GI50: > 100 µM (inactive)
OVCAR-8
  GI50: > 100 µM (inactive)
PC-3
  GI50: > 100 µM (inactive)
RXF 393
  GI50: > 100 µM (inactive)
SF-268
  GI50: > 100 µM (inactive)
SF-295
  GI50: > 100 µM (inactive)
SF-539
  GI50: > 100 µM (inactive)
SK-MEL-28
  GI50: > 100 µM (inactive)
SK-MEL-2
  GI50: > 100 µM (inactive)
SK-MEL-5
  GI50: 52 µM (inactive)
SK-OV-3
  GI50: > 100 µM (inactive)
SN12C
  GI50: > 100 µM (inactive)
SNB-75
  GI50: > 100 µM (inactive)
SR
  GI50: > 100 µM (inactive)
SW-620
  GI50: > 100 µM (inactive)
T47D
  GI50: > 100 µM (inactive)
TK-10
  GI50: > 100 µM (inactive)
U-251
  GI50: > 100 µM (inactive)
UACC-257
  GI50: > 100 µM (inactive)
UACC-62
  GI50: > 100 µM (inactive)
UO-31
  GI50: > 100 µM (inactive)
